Results taken from ChEMBL document CHEMBL1129332, “2-Phenyl-4-quinolinecarboxamides: a novel class of potent and selective non-peptide competitive antagonists for the human neurokinin-3 receptor” (J Med Chem, 1996).

Key:
Substance-K receptor = molecular target: T1, Substance-K receptor (Homo sapiens, UniProt P21452); format: cell membranes, CHO
T1 sequence (P21452 whole entry): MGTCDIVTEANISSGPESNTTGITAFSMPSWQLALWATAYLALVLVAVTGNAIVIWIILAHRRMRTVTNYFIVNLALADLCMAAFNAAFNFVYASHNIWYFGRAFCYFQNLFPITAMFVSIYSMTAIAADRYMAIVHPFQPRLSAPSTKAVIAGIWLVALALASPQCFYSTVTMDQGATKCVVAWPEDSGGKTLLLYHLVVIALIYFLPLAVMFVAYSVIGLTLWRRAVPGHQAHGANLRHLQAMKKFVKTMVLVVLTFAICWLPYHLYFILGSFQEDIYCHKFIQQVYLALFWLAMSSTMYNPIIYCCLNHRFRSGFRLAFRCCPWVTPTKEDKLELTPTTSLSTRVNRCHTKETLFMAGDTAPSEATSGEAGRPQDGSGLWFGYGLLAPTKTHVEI

Substance-P receptor [1] = molecular target: T2, Substance-P receptor (Homo sapiens, UniProt P25103); assay: Binding Affinity of [3H]- substance P towards Tachykinin receptor 1-CHO cell membranes (n=3-8)
T2 sequence (P25103 whole entry): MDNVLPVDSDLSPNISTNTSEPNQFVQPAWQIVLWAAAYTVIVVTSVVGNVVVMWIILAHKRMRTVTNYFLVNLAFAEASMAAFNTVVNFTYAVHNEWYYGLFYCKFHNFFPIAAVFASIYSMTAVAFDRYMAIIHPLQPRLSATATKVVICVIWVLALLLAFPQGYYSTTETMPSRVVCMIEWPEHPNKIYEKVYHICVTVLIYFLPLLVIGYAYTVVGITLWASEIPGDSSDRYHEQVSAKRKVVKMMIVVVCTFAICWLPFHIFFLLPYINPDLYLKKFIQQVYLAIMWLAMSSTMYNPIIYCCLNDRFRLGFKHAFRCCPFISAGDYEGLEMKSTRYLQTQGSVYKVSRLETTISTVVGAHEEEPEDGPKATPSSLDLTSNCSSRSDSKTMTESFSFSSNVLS

Substance-P receptor [2] = molecular target: T2, Substance-P receptor; assay: Binding affinity against hTachykinin receptor 1 for the displacement of [3H]-substance P binding from Tachykinin receptor 1 CHO membrane
Oryctolagus cuniculus = species on record: Oryctolagus cuniculus; assay: Antagonism of senktide-induced contraction in rabbit isolated iris sphincter muscle; format: functional

## COC(=O)C(NC(=O)c1cc(-c2ccccc2)nc2ccccc12)c1ccccc1 (configuration not stated)
Substance-K receptor
  Ki: 2950 nM
Substance-P receptor [1]
  Ki: > 100000 nM

## COc1ccc2c(C(=O)NCc3ccccc3)cc(-c3ccccc3)nc2c1
Substance-P receptor [2]
  Ki: > 10000 nM

## COC(=O)[C@@H](NC(=O)c1cc(-c2ccccc2)nc2ccccc12)c1ccccc1
Substance-K receptor
  Ki: 1220 nM
Substance-P receptor [1]
  Ki: > 100000 nM

## COC(=O)[C@H](NC(=O)c1cc(-c2ccccc2)nc2ccccc12)c1ccccc1
Substance-K receptor
  Ki: 8330 nM
Substance-P receptor [1]
  Ki: > 100000 nM

## CC[C@H](NC(=O)c1cc(-c2ccccc2)nc2ccccc12)c1ccccc1 [AZD-7624]
Substance-K receptor
  Ki: 237 nM
Substance-P receptor [1]
  Ki: > 100000 nM

## CC(=O)N(C)C1(c2ccccc2)CCN(CCC[C@]2(c3ccc(Cl)c(Cl)c3)CCCN(C(=O)c3ccccc3)C2)CC1 [OSANETANT]
Oryctolagus cuniculus
  Kb: 2 nM

## CC[C@H](NC(=O)c1c(C)c(-c2ccccc2)nc2ccccc12)c1ccccc1 [SB-222200]
Substance-K receptor
  Ki: 277 nM
Substance-P receptor [1]
  Ki: > 100000 nM
